Reference: patent US12240844B2 (Voronoi, Inc., priority 2019, dated 2025)

Key:
Type in all cases: biochemical
[1] = target: T1, human GST-CLK1 (129-end) (Homo sapiens, UniProt P49759); experiment: GST-CLK1 enzyme inhibition, ADP-Glo kinase assay; settings: ATP 10 uM
T1 construct: purified human GST-CLK1 (129-end, Signalchem) enzyme; GST; purchased Signalchem
Experimental: (§1) In order to evaluate the inhibitory activity of the compounds according to the present invention on LRRK2, LRRK2 (G2019S), DYRK1, CLK1 and TTK kinases, the following experiment was performed.
(§2) Example compounds were reacted with the purified human GST-CLK1 (129-end, Signalchem) enzyme to evaluate the enzyme inhibitory ability as follows. As the reaction buffer, the composition of 40 mM Tris-HCl pH 7.4, 20 mM MgCl2, 0.5 mg/mL BSA, and 50 uM DTT was used, and the reaction of all test materials was performed on the reaction buffer. During the test, the human GST-CLK1 (129-end, 3 ng) enzyme, the purified ATP (10 uM), and a specific substrate solution were reacted at 25° C. for 1 hour, and then the enzyme activity was identified using the in vitro ADP-Glo™ kinase assay (promega). Luminescence was measured by reacting the enzyme activity reaction solution, an ADP-Glo reaction solution and the enzyme potency detection solution in a ratio of 2:2:1. The degree of inhibition of enzyme activity according to the treatment concentrations of the respective compounds was calculated based on the fluorescence of the enzyme activity of a solvent control group that was not treated with the compound, where the concentration of each compound to inhibit enzyme activity inhibition by 50% was determined as an IC50 (nM) value. The IC50 of each compound was determined in triplicate data sets and obtained using Prism (version 7.01, GraphPad) software.
(§3) In the table below, the following designations were used for the evaluation of enzyme inhibitory ability.

[2] = target: T2, human GST-DYRK1A (full length) (Homo sapiens, UniProt Q13627); experiment: GST-DYRK1A enzyme inhibition, ADP-Glo kinase assay; settings: read-out: DYRK1 IC50
T2 construct: purified human GST-DYRK1A (full length, Thermo scientifics) enzyme; GST; purchased Thermo scientifics
Experimental: as §1
as §2, with “GST-DYRK1A (full length, Thermo scientifics)” for “GST-CLK1 (129-end, Signalchem)”, “GST-DYRK1A (full length, 10” for “GST-CLK1 (129-end, 3”
as §3

[3] = target: LRRK2 (G2019S) (Homo sapiens, UniProt Q5S007, G2019S); experiment: LRRK2 G2019S enzyme inhibition, ADP-Glo kinase assay; set-up: purchased SignalChem L10-12GG
Experimental: as §1
Example compounds were reacted with the purified human LRRK2 G2019S (L10-12GG, SignalChem) enzyme to evaluate the enzyme inhibitory ability as follows. The reaction buffer was used as the composition of 40 mM Tris-HCl pH7.4, 20 mM MgCl2, 0.5 mg/ml BSA and 50 μM DTT, and the reaction of all test materials was performed on the reaction buffer. The compound was diluted with 10 mM DMSO stock in 12 steps by a serial dilution method, and the enzyme activity was measured at the final compound concentrations of 50, 10, 2, 0.4, 0.08, 0.016, 0.0032, 0.00064, 0.000128, 0.0000256, 0.00000512 and 0.000001024 μM. In the test, the human LRRK2 G2019S (16 ng) enzyme was reacted with the purified ATP (25 μM) and an enzyme substrate (0.2 μg) at 25° C. for 2 hours, and then the enzyme activity was identified using the in vitro ADP-Glo™ kinase assay (promega). The enzyme activity reaction liquid, an ADP-Glo reaction liquid and an enzyme potency detection solution were reacted in a ratio of 2:2:1, and the degree of inhibition of enzyme activity was measured by Luminescence. The degree of inhibition of enzyme activity according to the treatment concentrations of the respective compounds was calculated based on the fluorescence of the enzyme activity of a solvent control group that was not treated with the compound, where the concentration of each compound to inhibit enzyme activity inhibition by 50% was determined as an IC50 (nM) value and obtained using Prism (Version 5.01, GraphPad) software.
as §3

T1 sequence (P49759 129-484 limits assumed): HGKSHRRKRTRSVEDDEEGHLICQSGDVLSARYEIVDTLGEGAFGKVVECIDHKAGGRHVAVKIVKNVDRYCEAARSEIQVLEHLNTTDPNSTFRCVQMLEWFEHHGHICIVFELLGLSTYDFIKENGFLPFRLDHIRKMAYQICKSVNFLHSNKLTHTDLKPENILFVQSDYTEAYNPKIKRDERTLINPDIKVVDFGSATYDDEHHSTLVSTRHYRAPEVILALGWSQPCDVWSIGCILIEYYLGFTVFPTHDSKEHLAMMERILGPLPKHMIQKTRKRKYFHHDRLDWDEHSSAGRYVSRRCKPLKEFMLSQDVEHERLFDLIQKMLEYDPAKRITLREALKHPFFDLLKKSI
Sequence of LRRK2 (G2019S) (Q5S007 970-2527 G2019S limits assumed): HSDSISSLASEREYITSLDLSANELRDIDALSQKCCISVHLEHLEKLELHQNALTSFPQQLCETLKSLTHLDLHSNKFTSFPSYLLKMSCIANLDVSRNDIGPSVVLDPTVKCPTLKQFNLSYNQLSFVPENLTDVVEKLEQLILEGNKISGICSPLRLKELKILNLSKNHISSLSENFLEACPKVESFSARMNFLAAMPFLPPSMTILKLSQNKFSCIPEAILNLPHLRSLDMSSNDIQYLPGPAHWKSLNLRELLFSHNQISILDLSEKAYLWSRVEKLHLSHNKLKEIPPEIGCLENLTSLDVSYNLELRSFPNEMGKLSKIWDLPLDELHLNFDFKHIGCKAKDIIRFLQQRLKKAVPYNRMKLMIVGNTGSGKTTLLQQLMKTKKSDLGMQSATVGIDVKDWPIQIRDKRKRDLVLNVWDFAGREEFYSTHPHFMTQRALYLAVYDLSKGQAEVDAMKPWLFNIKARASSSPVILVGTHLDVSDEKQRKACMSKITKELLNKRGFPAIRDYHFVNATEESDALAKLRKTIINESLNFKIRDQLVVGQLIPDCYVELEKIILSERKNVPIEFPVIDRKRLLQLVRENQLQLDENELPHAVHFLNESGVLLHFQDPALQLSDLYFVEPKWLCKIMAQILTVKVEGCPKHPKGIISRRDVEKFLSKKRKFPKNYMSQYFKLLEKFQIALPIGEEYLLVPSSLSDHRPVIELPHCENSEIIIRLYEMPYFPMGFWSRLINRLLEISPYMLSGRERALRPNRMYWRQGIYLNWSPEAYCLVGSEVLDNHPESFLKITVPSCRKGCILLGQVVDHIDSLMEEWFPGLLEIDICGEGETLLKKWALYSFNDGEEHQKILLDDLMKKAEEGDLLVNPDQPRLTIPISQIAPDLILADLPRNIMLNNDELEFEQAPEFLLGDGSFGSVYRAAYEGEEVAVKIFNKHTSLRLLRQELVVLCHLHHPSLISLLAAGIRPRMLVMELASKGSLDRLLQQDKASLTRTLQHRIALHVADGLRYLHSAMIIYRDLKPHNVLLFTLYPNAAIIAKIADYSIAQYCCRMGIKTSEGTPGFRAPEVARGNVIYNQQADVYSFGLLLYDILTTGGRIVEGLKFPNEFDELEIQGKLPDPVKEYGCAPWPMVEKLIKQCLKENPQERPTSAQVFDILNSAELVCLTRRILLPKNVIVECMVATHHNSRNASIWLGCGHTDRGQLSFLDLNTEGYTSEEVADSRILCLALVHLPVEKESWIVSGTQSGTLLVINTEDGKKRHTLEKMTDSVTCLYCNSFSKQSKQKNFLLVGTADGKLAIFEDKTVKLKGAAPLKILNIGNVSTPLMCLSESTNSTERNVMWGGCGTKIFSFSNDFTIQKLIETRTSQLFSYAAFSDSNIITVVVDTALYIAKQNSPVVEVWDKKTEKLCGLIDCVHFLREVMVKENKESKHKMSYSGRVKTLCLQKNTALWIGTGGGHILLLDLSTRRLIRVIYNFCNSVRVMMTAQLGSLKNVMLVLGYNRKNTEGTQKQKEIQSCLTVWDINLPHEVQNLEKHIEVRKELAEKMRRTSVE

Row | IC50 [1] | IC50 [2] | IC50 [3] | SMILES
1 | 301 to 1000 nM | 301 to 1000 nM | 301 to 1000 nM | COc1cc(S(=O)(=O)N2CCOCC2)ccc1Nc1cc(NCCS(C)(=O)=O)c2cc[nH]c2n1 [Example 17, N^6-(2-methoxy-4-(morpholinosulfonyl)phenyl)-N^4-(2-(methylsulfonyl)ethyl)-1H-pyrrolo[2,3-b]pyridine-4,6-diamine]
2 | 301 to 1000 nM | 301 to 1000 nM | < 100 nM | CNc1cc(Nc2ccc(C(=O)N3CCOCC3)c3c2OCCO3)nc2[nH]ccc12 [Example 2, (8-((4-(Methylamino)-1H-pyrrolo[2,3-b]pyridine-6-yl)amino)-2,3-dihydrobenzo[b] [1,4]dioxin-5-yl)(morpholino) methanone]
3 | 301 to 1000 nM | 301 to 1000 nM | 301 to 1000 nM | COc1cc(S(=O)(=O)N2CCOCC2)ccc1Nc1cc(NC2CC2)c2c(Cl)c[nH]c2n1 [Example 68, 3-chloro-N^4-cyclopropyl-N^6-(2-methoxy-4-(morpholinosulfonyl)phenyl)-1H-pyrrolo[2,3-b]pyridine-4,6-diamine]
4 | 301 to 1000 nM | 301 to 1000 nM | 301 to 1000 nM | COc1cc(S(=O)(=O)N2CCC(N3CCOCC3)CC2)ccc1Nc1cc(NC2CCCCC2)c2cc[nH]c2n1 [Example 23, N^4-cyclohexyl-N^6-(2-methoxy-4-((4-morpholinopiperidin-1-yl)sulfonyl)phenyl)-1H-pyrrolo[2,3-b]pyridine-4,6-diamine]
5 | 301 to 1000 nM | 301 to 1000 nM | 301 to 1000 nM | CCCNc1cc(Nc2ccc(S(=O)(=O)N3CCOCC3)cc2OC)nc2[nH]cc(Cl)c12 [Example 66, 3-chloro-N^6-(2-methoxy-4-(morpholinosulfonyl)phenyl)-N^4-propyl-1H-pyrrolo[2,3-b]pyridine-4,6-diamine]
6 | 301 to 1000 nM | 301 to 1000 nM | < 100 nM | COc1cc(S(=O)(=O)N2CCOCC2)ccc1Nc1cc(NC2CC2)c2cc[nH]c2n1 [Example 15, N^4-cyclopropyl-N^6-(2-methoxy-4-(morpholinosulfonyl)phenyl)-1H-pyrrolo[2,3-b]pyridine-4,6-diamine]
7 | 301 to 1000 nM | 301 to 1000 nM | < 100 nM | CNc1cc(Nc2ccc(S(C)(=O)=O)cc2OC)nc2[nH]cc(Cl)c12 [Example 80, 3-chloro-N^6-(2-methoxy-4-(methylsulfonyl)phenyl)-N^4-methyl-1H-pyrrolo[2,3-b]pyridine-4,6-diamine]
8 | 301 to 1000 nM | 301 to 1000 nM | 301 to 1000 nM | COc1cc(S(C)(=O)=O)ccc1Nc1cc(NCCS(C)(=O)=O)c2c(Cl)c[nH]c2n1 [Example 88, 3-chloro-N^6-(2-methoxy-4-(methylsulfonyl)phenyl)-N^4-(2-(methylsulfonyl)ethyl)-1H-pyrrolo[2,3-b]pyridine-4,6-diamine]
9 | 301 to 1000 nM | 301 to 1000 nM | < 100 nM | CCCNc1cc(Nc2ccc(S(=O)(=O)N3CCC(N4CCOCC4)CC3)cc2OC)nc2[nH]ccc12 [Example 20, N^6-(2-methoxy-4-((4-morpholinopiperidin-1-yl)sulfonyl)phenyl)-N^4-propyl-1H-pyrrolo[2,3-b]pyridine-4,6-diamine]
10 | 301 to 1000 nM | 301 to 1000 nM | 301 to 1000 nM | COc1cc(S(C)(=O)=O)ccc1Nc1cc(NCCS(C)(=O)=O)c2cc[nH]c2n1 [Example 31, N^6-(2-methoxy-4-(methylsulfonyl)phenyl)-N^4-(2-(methylsulfonyl)ethyl)-1H-pyrrolo[2,3-b]pyridine-4,6-diamine]
11 | < 100 nM | < 100 nM | < 100 nM | CCNc1cc(Nc2ccc(C(=O)N3CCO[C@H](C)C3)c3c2OCC3)nc2[nH]cc(C(F)(F)F)c12 [Example 260, (R)-(7-((4-(ethylamino)-3-(trifluoromethyl)-1H-pyrrolo[2,3-b]pyridin-6-yl)amino)-2,3-dihydrobenzofuran-4-yl)(2-methylmorpholino) methanone]
12 | 301 to 1000 nM | 301 to 1000 nM | 101 to 300 nM | O=C(c1ccc(Nc2cc(NC3CCCCC3)c3cc[nH]c3n2)c2c1OCCO2)N1CCOCC1 [Example 8, (8-((4-(cyclohexylamino)-1H-pyrrolo[2,3-b]pyridin-6-yl)amino)-2,3-dihydrobenzo[b] [1,4]dioxin-5-yl)(morpholino) methanone]
13 | 301 to 1000 nM | 301 to 1000 nM | < 100 nM | COc1cc(S(=O)(=O)N2CCC(N3CCOCC3)CC2)ccc1Nc1cc(NC2CCCC2)c2c(C#N)c[nH]c2n1 [Example 136, 4-(cyclopentylamino)-6-((2-methoxy-4-((4-morpholinopiperidin-1-yl)sulfonyl)phenyl)amino)-1H-pyrrolo[2,3-b]pyridine-3-carbonitrile]
14 | 301 to 1000 nM | 301 to 1000 nM | < 100 nM | CCCNc1cc(Nc2ccc(C(=O)N3CCOCC3)c3c2OCCO3)nc2[nH]cc(Cl)c12 [Example 58, (8-((3-chloro-4-(propylamino)-1H-pyrrolo[2,3-b]pyridin-6-yl)amino)-2,3-dihydrobenzo[b] [1,4]dioxin-5-yl)(morpholino) methanone]
15 | 301 to 1000 nM | 301 to 1000 nM | < 100 nM | CNc1cc(Nc2ccc(C(=O)N3CCOCC3)c3c2OCCO3)nc2[nH]cc(Cl)c12 [Example 56, (8-((3-chloro-4-(methylamino)-1H-pyrrolo[2,3-b]pyridin-6-yl)amino)-2,3-dihydrobenzo[b] [1,4]dioxin-5-yl)(morpholino) methanone 2,2,2-trifluoroacetate]
16 | 301 to 1000 nM | 301 to 1000 nM | < 100 nM | CS(=O)(=O)CCNc1cc(Nc2ccc(C(=O)N3CCOCC3)c3c2OCCO3)nc2[nH]cc(Cl)c12 [Example 63, (8-((3-chloro-4-((2-(methylsulfonyl)ethyl)amino)-1H-pyrrolo[2,3-b]pyridin-6-yl)amino)-2,3-dihydrobenzo[b] [1,4]dioxin-5-yl)(morpholino) methanone]
17 | 301 to 1000 nM | 301 to 1000 nM | 301 to 1000 nM | COc1cc(S(=O)(=O)N2CCOCC2)ccc1Nc1cc(NC2CCCCC2)c2cc[nH]c2n1 [Example 16, N^4-cyclohexyl-N^6-(2-methoxy-4-(morpholinosulfonyl)phenyl)-1H-pyrrolo[2,3-b]pyridine-4,6-diamine]
18 | 301 to 1000 nM | 301 to 1000 nM | < 100 nM | COc1cc(S(=O)(=O)N2CCC(N3CCOCC3)CC2)ccc1Nc1cc(NCC(C)C)c2cc[nH]c2n1 [Example 21, N^4-isobutyl-N^6-(2-methoxy-4-((4-morpholinopiperidin-1-yl)sulfonyl)phenyl)-1H-pyrrolo[2,3-b]pyridine-4,6-diamine]
19 | 301 to 1000 nM | 301 to 1000 nM | < 100 nM | COc1cc(S(=O)(=O)N2CCC(N3CCOCC3)CC2)ccc1Nc1cc(NC2CC2)c2cc[nH]c2n1 [Example 22, N^4-cyclopropyl-N^6-(2-methoxy-4-((4-morpholinopiperidin-1-yl)sulfonyl)phenyl)-1H-pyrrolo[2,3-b]pyridine-4,6-diamine]
